Values after ≈ are worked out from the molar mass of the structure shown.
Legend:
[1] = test system: Bacillus subtilis; test: Minimum inhibitory concentration, Bacillus subtilis (Bs); type: cell-based; conditions: 30° C., 24 and 72 hours
Description: (§1) In respect of S. aureus, B. subtilis and E. coli, the microorganisms were cultured in 50 ml aliquots of a tryptone soya broth in 250 ml conical flasks at 30° C. on a rotary shaker at 200 rpm for 24 hours. Tryptone soya broth was prepared by adding 17 g pancreatic digest of casein, 3 g […] digest of soyabean meal, 5 g of sodium chloride, 2.5 g of dipotassium hydrogen phosphate and 2.5 g of dextrose to 1 liter of distilled water, mixing and sterilising by autoclaving at 121° C. for 15 minutes. 1 ml aliquots of the resulting cultures were mixed with 99 ml of fresh tryptone soya broth and used as inocula for tests. […] Test procedures were as follows: (ii) Dilution Series for Other Test Bacteria, Yeast and Filamentous Fungi Dilution series from the stock solution of each compound were prepared in sterile distilled water. These contained 50, 100, 500 and 1000 ppm compound. To duplicate wells of a compartmentalised square petri dish 0.3 ml of each test compound concentration was added together with 2.7 ml of one of the microbial inocula described above. […] After incubation, in the dark, at 30° C. the wells were examined for the presence or absence of growth. Bacterial and yeast cultures were examined after 24 hours and 72 hours incubation and the fungi cultures after 3, 7 and 10 days. By means of the above tests minimum inhibitory concentrations were determined for the various test compounds.

[2] = test system: Erysiphe graminis f.sp. hordei; test: Direct antisporulant activity against barley powdery mildew (Eg); type: in vivo; design: scale not given here; conditions: foliar spray, 1 kg/ha; activity grade 1 or 2, not defined
Text: (f) Activity Against Barley Powdery Mildew (Erysiphe graminis f.sp. hordei; Eg) The test is a direct antisporulant one, using a foliar spray. Leaves of barley seedlings, cultivar Golden Promise, are inoculated by dusting with mildew conidia one day prior to treatment with the test compound. The inoculated plants are kept overnight at glasshouse ambient temperature and humidity prior to treatment. […] After drying, plants are returned to a compartment at ambient temperature and humidity for up to 7 days, followed by assessment. Assessment is based on the percentage of leaf area covered by sporulation compared with that on leaves of control plants.

[3] = test system: Aspergillus niger; test: Minimum inhibitory concentration, Aspergillus niger (An); type: cell-based, Aspergillus niger (CMI 17454); conditions: 30° C., 3, 7 and 10 days
Description: (§2) Inocula of the fungi Aspergillus niger, Cladosporium resinae and Chaetomium globosum were prepared containing 5×10^5 conidia/ml in a potato dextrose broth. The potato dextrose broth was prepared by suspending 4 g potato extract and 20 g dextrose in 1 liter of distilled water, warming to achieve solution, separating into aliquots and sterilising by autoclaving at 121° C. for 15 minutes.
(§3) Test procedures were as follows:
(§4) (ii) Dilution Series for Other Test Bacteria, Yeast and Filamentous Fungi
(§5) Dilution series from the stock solution of each compound were prepared in sterile distilled water. These contained 50, 100, 500 and 1000 ppm compound. To duplicate wells of a compartmentalised square petri dish 0.3 ml of each test compound concentration was added together with 2.7 ml of one of the microbial inocula described above. This gave final concentrations of the test compound of 5, 10, 50 and 100 ppm.
(§6) After incubation, in the dark, at 30° C. the wells were examined for the presence or absence of growth. Bacterial and yeast cultures were examined after 24 hours and 72 hours incubation and the fungi cultures after 3, 7 and 10 days.
(§7) By means of the above tests minimum inhibitory concentrations were determined for the various test compounds.

[4] = test system: Cladosporium resinae; test: Minimum inhibitory concentration, Cladosporium resinae (Cr); type: cell-based; conditions: Amorphotheca resinae, 30° C., 3, 7 and 10 days
Description: as §2, §3, §4, §5, §6, §7

[5] = test system: Escherichia coli; test: Minimum inhibitory concentration, Escherichia coli (Ec); type: cell-based, Escherichia coli (NCIB 9517); conditions: 30° C., 24 and 72 hours
Description: as §1

[6] = test system: Leptosphaeria nodorum; test: Direct antisporulant activity against wheat leafspot (Ln); type: in vivo; design: scale not given here; conditions: foliar spray, 1 kg/ha; activity grade 1 or 2, not defined
Description: (e) Activity Against Wheat Leafspot (Leptosphaeria nodorum; Ln) The test is a direct antisporulant one, using a foliar spray. Leaves of wheat plants ([…]), at the single leaf stage, are inoculated by spraying with an aqueous suspension containing 8×10^5 spores/mi. The inoculated plants are kept for 24 hours in a high humidity compartment prior to treatment. […] After drying, the plants are kept for 5 days under normal glasshouse conditions, followed by assessment. Assessment is based on the percentage of leaf area covered by sporulation compared with that on leaves of control plants.

[7] = test system: Saccharomyces cerevisiae; test: Minimum inhibitory concentration, yeast (Sc); type: cell-based, Saccharomyces cerevisiae (ATCC 9763); conditions: 30° C., 24 and 72 hours
Description: Inocula of S. cerevisiae were prepared as for S. aureus, B. subtilis and E. coli, but using yeast malt broth in place of the typtone soya broth. The yeast malt broth was prepared by suspending 3 g yeast extract, 3 g malt extract, 5 g peptone and 10 g dextrose in 1 liter of distilled water, warming to achieve solution and sterilising by autoclaving at 121° C. for 15 minutes.
as §3, §4, §5, §6, §7

[8] = test system: Pseudocercosporella herpotrichoides; test: In vitro activity against wheat eyespot (Ph); type: cell-based; design: Ph: activity against wheat eyespot: scale not given here; conditions: in vitro, 100 ppm in agar, 11 days; activity grade 1 or 2, not defined
Description: (c) Activity Against Wheat Eyespot (Pseudocercosporella herpotrichoides; Ph)
The test is an in vitro one. Samples are prepared wherein 0.7 mls solution containing 2 mg active material dissolved in acetone is evenly dispersed in 20 ml molten half-strength potato dextrose agar (formed by dissolving 2 g potato extract, 10 g dextrose and 7.5 g agar in 1 liter of water and sterilising for 15 minutes and 121° C.) and the resulting 20 ml portions are allowed to set in 9 cm petri dishes. The concentration of active material in the resulting samples is 100 ppm. Upon setting, two plugs of 5 mm diameter taken from the advancing edge of a stock plate of a 3 to 4 week old culture of P.herpotrichoides on full strength potato dextrose agar, incubated at 20°-22° C. in darkness, are placed, equally spaced on the surface of each sample, mycelial side uppermost. The samples are incubated for 11 days at 20°-22° C. in darkness before assessment. Diametric growth is measured with the width of the plug subtracted and results compared with growth on a sample wherein 0.7 ml acetone containing no active material is dispersed in 20 ml half-strength potato agar.

[9] = test system: Chaetomium globosum; test: Minimum inhibitory concentration, Chaetomium globosum (Chg); type: cell-based
Description: as §2, §3, §4, §5, §6, §7

[10] = test system: Staphylococcus aureus; test: Minimum inhibitory concentration, Staphylococcus aureus (Sa); type: cell-based, Staphylococcus aureus (NCIB 6571); conditions: 30° C., 24 and 72 hours
Description: as §1

[11] = test system: Desulfovibrio sp.; test: Minimum inhibitory concentration, sulphate-reducing bacteria (Dsp); type: cell-based; conditions: 30° C., 2, 5 and 10 days
Description: The sulphate reducing bacteria Desulfovibrio sp. were cultured in a modified Postgate's Medium B for 48 hours at 30° C. and used directly as an inoculum. The modified Postgate's Medium B consisted of 0.5 g dipotassium hydrogen phosphate, 1 g ammonium chloride, 1 g sodium sulphate, 5 g sodium lactate, 1 g yeast extract, 0.1 ml thioglycolic acid, 0.1 ml ascorbic acid, 0.5 g ferrous sulphate heptahydrate, 750 ml aged seawater and 250 ml distilled water, pH adjusted to 7.8, divided into aliquots and sterilised by autoclaving at 121° C. for 15 minutes. […] Test procedures were as follows: (i) Suphate-reducing Bacteria Test Dilution Series Duplicate aliquots (9.9 ml) of dilution series from the stock solutions of each compound were prepared in a modified Postgate's Medium B described above. These contained 100 ppm compound. These were then inoculated with 0.1 ml of inoculum. After incubation at 30° C., the presence or absence of growth--as indicated by a blackening of the medium due to ferrous sulphide production--was recorded at 2, 5 and 10 days. […] By means of the above tests minimum inhibitory concentrations were determined for the various test compounds.

[12] = test system: Fusarium culmorum; test: Activity against seedling wheat blight, soil drench (Fs); type: in vivo; design: scale not given here; conditions: 10 kg/ha, 21 days, activity grade 1 or 2, not defined
Description: (d) Activity Against Seedling Wheat Blight (Fusarium culmorum; Fs)
The test is an anti-sporulant one using a soil drench. Surface sterilised wheat seeds (var Waggoner) are inoculated by soaking in an aqueous suspension containing 7×10^5 spores/ml (60 mg seed per 80 ml suspension) at 22° C. for 6 hours. The seeds are then sown in pots (5 per pot) in sand at a depth of 1 cm. 1 day after inoculation and planting the active material is applied at a rate of 10 kg/ha by pouring on a soil drench (concentration 0.36 g/l active material in 12% v/v acetone/water) evenly over the sand. The pots are then transferred to a glasshouse, kept at 25° C. and watered sparingly. 21 days after inoculation the resulting seedlings are removed from the pots and their roots are gently washed. Visual assessment is made based on lesion development on stem base and upper roots in comparison with control seedlings.

[13] = test system: Plasmopara viticola; test: Direct protectant activity against vine downy mildew (Pvp); type: in vivo; design: Pvp: direct protectant activity against vine downy mildew: scale not given here; conditions: for Pvp: direct protectant activity against vine downy mildew: foliar spray, 1 kg/ha, activity grade 1 or 2, not defined
Text: (a) Direct Protectant Activity Against Vine Downy Mildew (Plasmopara viticola; Pvp)
The test is a direct protectant one, using a foliar spray. The lower surfaces of leaves of whole vine plants (cv Cabernet Sauvignon) are sprayed with a solution of active material in 1:1 v/v water/acetone containing 0.04% w "Triton X-155" (trade mark) (octylphenol polyoxyethylene surfactant), at a dosage of 1 kilogram of active material per hectare using a track sprayer which delivers 620 liters/ha, and after a subsequent 24 hours under normal glasshouse conditions the lower surfaces of the leaves are inoculated by spraying with an aqueous solution containing 10^4 zoosporangia/ml. The inoculated plants are kept for 24 hours in a high humidity compartment, 5 days under normal glasshouse conditions and then returned for a further 24 hours to high humidity. Assessment is based on the percentage of leaf area covered by sporulation compared with that on control leaves.

MIC [1]	MIC [3]	MIC [4]	MIC [5]	MIC [7]	MIC [10]	MIC [11]	MIC ([9]; 30° C., 3, 7 and 10 days)	Compound	Eg: activity against barley powdery mildew [2]	Ln: activity against wheat leafspot [6]	Ph: activity against wheat eyespot [8]	MIC ([9]; *only tested at 100 ppm)	Fs: activity against seedling wheat blight [12]	Pvp: direct protectant activity against vine downy mildew [13]	activity against Pvp ([13]; secondary screening)
50 µg/mL (≈ 228 µM)	> 100 µg/mL	100 µg/mL (≈ 456 µM)	100 µg/mL (≈ 456 µM)	> 100 µg/mL	> 100 µg/mL	50 µg/mL (≈ 228 µM)	100 µg/mL (≈ 456 µM)	N#CN=[N+]([O-])c1cccc2c1OC(CO)C2 (stereo not drawn) [Example 12]							
100 µg/mL (≈ 421 µM)	10 µg/mL (≈ 42.1 µM)	100 µg/mL (≈ 421 µM)	100 µg/mL (≈ 421 µM)	100 µg/mL (≈ 421 µM)	100 µg/mL (≈ 421 µM)	> 100 µg/mL	25 µg/mL (≈ 105 µM)	N#CN=[N+]([O-])c1cccc2c1OC(CCl)C2 (stereo not drawn) [Example 13]							
> 100 µg/mL	10 µg/mL (≈ 46 µM)	25 µg/mL (≈ 115 µM)	> 100 µg/mL	50 µg/mL (≈ 230 µM)	> 100 µg/mL	100 µg/mL (≈ 460 µM)	< 5 µg/mL	CC1CCc2cccc([N+]([O-])=NC#N)c2O1 (stereo not drawn) [Example 14]			2				
50 to 100 µg/mL (≈ 249 to 497 µM)	10 to 25 µg/mL (≈ 49.7 to 124 µM)	25 to 50 µg/mL (≈ 124 to 249 µM)	> 100 µg/mL	25 µg/mL (≈ 124 µM)	> 100 µg/mL	100 µg/mL (≈ 497 µM)	25 µg/mL (≈ 124 µM)	N#CN=[N+]([O-])c1ccc2c(c1)C=CCO2 [Example 28]							
								COC(=O)N=Nc1cc(C)cc2c1OC(C)(C)C2 [Example 32]						1	
								Cc1ccc(N=NC#N)c2c1CC(C)(C)O2 [Example 38]						2	high activity
								C#CCOC(=O)N=Nc1ccc(C)c2c1OC(C)CC2 (stereo not drawn) [Example 39]	1	1					
								C#CCOC(=O)N=Nc1cc(C)c(Cl)c2c1OC(C)CC2 (stereo not drawn) [Example 41]	1					1	
								CCOC(=O)N=Nc1cc(C)c(Cl)c2c1OC(C)CC2 (stereo not drawn) [Example 42]	2						
								COC(=O)N=[N+]([O-])c1cc(C)cc2c1OC(C)(C)C2 [Example 44]	2					1	

Compound	MIC [1]	MIC [3]	MIC [4]	MIC [5]	MIC [7]	MIC [10]	MIC [11]	MIC ([9]; 30° C., 3, 7 and 10 days)	Eg: activity against barley powdery mildew [2]	Ln: activity against wheat leafspot [6]	Ph: activity against wheat eyespot [8]	MIC ([9]; *only tested at 100 ppm)	Fs: activity against seedling wheat blight [12]	Pvp: direct protectant activity against vine downy mildew [13]	activity against Pvp ([13]; secondary screening)
CCC1Cc2cccc([N+]([O-])=NC#N)c2O1 (stereo not drawn) [Example 8]	> 100 µg/mL	10 µg/mL (≈ 46 µM)	10 µg/mL (≈ 46 µM)	> 100 µg/mL	100 µg/mL (≈ 460 µM)	> 100 µg/mL	> 100 µg/mL		1	1	2	< 100 µg/mL	2		
CC1(C)CCc2cc(Cl)cc([N+]([O-])=NC#N)c2O1 [Example 15]	100 µg/mL (≈ 376 µM)	10 µg/mL (≈ 37.6 µM)	> 100 µg/mL	> 100 µg/mL	50 µg/mL (≈ 188 µM)	> 100 µg/mL	> 100 µg/mL	> 100 µg/mL			2		2		
CC1(C)C=Cc2cccc([N+]([O-])=NC#N)c2O1 [Example 27]	> 100 µg/mL	100 µg/mL (≈ 436 µM)	25 µg/mL (≈ 109 µM)	> 100 µg/mL	> 100 µg/mL	> 100 µg/mL	100 µg/mL (≈ 436 µM)				2	< 100 µg/mL	2		
